Data published in PubChem BioAssay (NCI).
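1) Cells in 96-well plates. 2) Compound, 48 h, 5 concentrations. 3) Linear interpolation between surrounding doses. 4) Unreached endpoint = highest concentration. At the TGI there is no net growth.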 Where a SMILES comes first, the peptide text is derived from it. The star is where a group is joined. ONb = O=[N+]([O-])c1ccc(CO*)cc1; Boc = CC(C)(C)OC(=O)*

Assays:
Test in all cases: inhibition of tumour cell growth, NCI panel, 48 h
786-0 renal = tested on: 786-0 renal
CAKI-1 renal = tested on: CAKI-1 renal
DMS 114 small cell lung = tested on: DMS 114 small cell lung
DMS 273 small cell lung = tested on: DMS 273 small cell lung
KM20L2 colon = tested on: KM20L2 colon
M14 melanoma = tested on: M14 melanoma
M19-MEL melanoma = tested on: M19-MEL melanoma
MALME-3M melanoma = tested on: MALME-3M melanoma
SNB-75 CNS = tested on: SNB-75 CNS
TK-10 renal = tested on: TK-10 renal
UACC-62 melanoma = tested on: UACC-62 melanoma
DU-145 prostate = tested on: DU-145 prostate
MDA-MB-231 breast = tested on: MDA-MB-231 breast

Structure (SMILES) | TGI (786-0 renal) | TGI (CAKI-1 renal) | TGI (DMS 114 small cell lung) | TGI (DMS 273 small cell lung) | TGI (KM20L2 colon) | TGI (M14 melanoma) | TGI (M19-MEL melanoma) | TGI (MALME-3M melanoma) | TGI (SNB-75 CNS) | TGI (TK-10 renal) | TGI (UACC-62 melanoma) | TGI (DU-145 prostate) | TGI (MDA-MB-231 breast)
CC(=O)OC(CCC1(C)OC1COc1ccc(CCNC(=O)c2ccccc2)cc1)C(C)(C)OC(C)=O (centres undefined) | > 100 µM | > 100 µM | 15.8 µM | 24.8 µM | > 100 µM | 30.1 µM | 69 µM | 80.1 µM | > 100 µM | > 100 µM | 31.4 µM | – | –
COc1ccc(/C=c2\sc3n(c2=O)C(N)=C(C#N)C(c2ccc(OC)cc2)C=3c2nc3ccccc3[nH]2)cc1 (centres undefined) | > 100 µM | 42.9 µM | 72.9 µM | > 100 µM | > 100 µM | > 100 µM | 63.8 µM | 42.2 µM | > 100 µM | 66.5 µM | > 100 µM | – | –
CC(=O)O[C@@H]1C2=C(C)C=C(O2)[C@H]2O[C@]2(C)C[C@H]2C=C(C(=O)O2)[C@H](OC(C)=O)CC1[C@@]1(C)CO1 (some centres undefined) | 77.1 µM | 62.8 µM | – | – | – | 64.2 µM | – | 58.4 µM | > 100 µM | > 100 µM | 56.3 µM | > 100 µM | 78.8 µM
Nc1nc(N)c2ncn(Cc3ccccc3CCl)c2n1 | > 100 µM | > 100 µM | – | – | – | > 100 µM | – | > 100 µM | > 100 µM | > 100 µM | > 100 µM | > 100 µM | > 100 µM
O=c1[nH]c(Nc2cc(Cl)cc(Cl)c2)nc2nc[nH]c12 | > 75 µM | > 75 µM | – | – | – | > 75 µM | – | > 75 µM | > 75 µM | > 75 µM | > 75 µM | > 75 µM | > 75 µM
CC(C)[Si](OC1=CCC[C@H]2NC(=O)[C@@H](Cc3ccccc3)[C@@]12C)(C(C)C)C(C)C | 14.9 µM | 14.6 µM | – | – | – | 24.7 µM | – | 34.3 µM | 31.2 µM | 21.7 µM | 22.4 µM | 22.1 µM | 26.5 µM
CCCCN1C(=O)c2c(-c3sccc3N)sc(-c3sccc3N)c2C1=O | 21.1 µM | > 100 µM | – | – | – | > 100 µM | – | > 100 µM | 34.6 µM | 72.5 µM | > 64.6 µM | > 100 µM | 97.3 µM
C#CC1(O)C(COP(=O)(O)OCC2OC(n3ccc(NCCCCCCCCCCCCCCCCCC)nc3=O)C(O)C2O)OC(n2ccc(N)nc2=O)C1O (centres undefined) | > 100 µM | 6.77 µM | – | – | – | 15.2 µM | – | 11 µM | 45.9 µM | 19.1 µM | 10.3 µM | > 100 µM | 34.4 µM
Fc1ccc2nc3n(c2c1)C(c1c(Cl)cccc1Cl)SC3 (centres undefined) | > 100 µM | > 100 µM | – | – | – | > 100 µM | – | > 100 µM | > 100 µM | > 100 µM | > 100 µM | > 100 µM | > 100 µM
CCOC(=O)C1=C(C)N(c2ccc(C)cc2)C2=C(C(=O)N(c3ccccc3)C2c2ccccc2)C1c1ccccc1 (centres undefined) | > 25 µM | – | > 25 µM | > 25 µM | > 25 µM | > 25 µM | > 25 µM | > 25 µM | > 25 µM | > 25 µM | > 25 µM | – | –
COc1ccc2oc(OC)c(CC=C(C)C)c(=O)c2c1C | > 100 µM | > 100 µM | – | – | – | > 100 µM | – | > 100 µM | > 100 µM | > 100 µM | > 100 µM | > 100 µM | > 100 µM
Cc1noc2nnn(-c3ccc(Cl)cc3)c(=O)c12 | 8.33 µM | 13 µM | – | – | – | 25.4 µM | – | 26 µM | 7.47 µM | 21.8 µM | 17.8 µM | 14.3 µM | 25.7 µM
Cc1c2cnccc2c(C)c2c1c1ccccc1n2CCCCCCNCc1ccccc1 | – | 3.48 µM | 3.94 µM | 2.47 µM | 3.33 µM | – | 3.95 µM | 4.61 µM | 3.9 µM | – | 4.16 µM | – | –
CC(=O)N(O)[C@@H]1CC[C@H](n2cnc3c(N)ncnc32)C1 | > 100 µM | > 100 µM | – | – | – | > 100 µM | – | > 100 µM | > 100 µM | > 100 µM | > 100 µM | > 100 µM | > 100 µM
CN1CCC(CN2c3ccccc3Sc3ccccc32)CC1 | 27.3 µM | 18 µM | 29.8 µM | 26.2 µM | 25.8 µM | 26 µM | 26.4 µM | – | – | 29.2 µM | 28.2 µM | – | –
O=C/C=C/c1ccco1 | > 100 µM | > 100 µM | – | – | – | > 100 µM | – | > 100 µM | > 100 µM | > 100 µM | > 100 µM | > 100 µM | > 100 µM
O=C(CCCCCCC(=O)Nc1cccnc1)NO | > 100 µM | > 100 µM | – | – | – | > 56 µM | – | > 100 µM | > 100 µM | > 100 µM | 18.5 µM | > 31.5 µM | > 100 µM
CCOC(=O)Cc1nc2sc(S(N)(=O)=O)nn2c1Br | 52.1 µM | 37.2 µM | – | – | – | 33.8 µM | – | 81.7 µM | > 100 µM | > 100 µM | 36.1 µM | > 100 µM | 44.6 µM

Structure (SMILES) | TGI (786-0 renal) | TGI (CAKI-1 renal) | TGI (DMS 114 small cell lung) | TGI (DMS 273 small cell lung) | TGI (KM20L2 colon) | TGI (M14 melanoma) | TGI (M19-MEL melanoma) | TGI (MALME-3M melanoma) | TGI (SNB-75 CNS) | TGI (TK-10 renal) | TGI (UACC-62 melanoma) | TGI (DU-145 prostate) | TGI (MDA-MB-231 breast)
Cn1/c(=N\S(=O)(=O)c2ccccc2)n(S(=O)(=O)c2ccccc2)c2ccccc21 | > 100 µM | > 100 µM | – | – | – | > 100 µM | – | > 100 µM | > 100 µM | > 100 µM | > 100 µM | > 100 µM | > 100 µM
Cc1cc(C)nc(SC(C)C(=O)N/N=C/c2ccc(OCc3ccccc3)cc2)n1 (centres undefined) | > 100 µM | > 100 µM | – | – | – | > 100 µM | – | > 100 µM | > 100 µM | > 100 µM | 92.5 µM | > 100 µM | 65 µM
CCC1CN2CCc3c([nH]c4ccccc34)C2C[C@@H]1CC(=O)N(C)C (some centres undefined) | > 100 µM | – | > 100 µM | > 100 µM | > 100 µM | > 100 µM | > 100 µM | > 100 µM | 92.6 µM | > 100 µM | – | – | –
Brc1ccc2c([C@H]3CN[C@@H](c4c[nH]c5cc(Br)ccc45)CN3)c[nH]c2c1 | 3.18 µM | 11.3 µM | – | – | – | 5.91 µM | – | 7.73 µM | 17.8 µM | 18.5 µM | 23.2 µM | 9.98 µM | 6.65 µM
CC(C)CC(NC(=O)OC(C)(C)C)C(=O)NC(CCC(=O)OCc1ccc([N+](=O)[O-])cc1)C(=O)OCc1ccc([N+](=O)[O-])cc1 (stereo not drawn) (Boc-Leu-Glu(ONb)-ONb; configuration not given here) | 71.5 µM | > 100 µM | – | – | – | 57.8 µM | – | > 100 µM | 31.9 µM | > 100 µM | 99.3 µM | 44.9 µM | > 100 µM
CCOC(=O)c1ccc(C(=O)/C(C(C)=O)=C2\CCCN2C)n1C | > 100 µM | > 100 µM | – | – | – | > 100 µM | – | > 100 µM | 66.6 µM | > 100 µM | > 100 µM | > 100 µM | > 100 µM
Cc1ccc(OC2CC(n3cnc4ncnc(Cl)c43)OC2Oc2ccc(C)cc2)cc1 (centres undefined) | > 100 µM | 5.93 µM | – | – | – | 65.8 µM | – | > 100 µM | 69.1 µM | > 100 µM | 96.7 µM | 53.2 µM | 50.2 µM
O=C1CCCC/C1=C\c1ccc(Br)cc1 | 30.9 µM | 32.1 µM | – | – | – | 26.1 µM | – | 21.5 µM | 29.8 µM | 30.9 µM | 19.6 µM | > 100 µM | 37.7 µM
Cn1c(-c2ccccc2)cc2c3ccsc3c3ccsc3c21 | > 100 µM | > 100 µM | – | – | – | > 100 µM | – | > 100 µM | > 100 µM | > 100 µM | > 100 µM | > 100 µM | > 100 µM
O=C1[C@@H]2[C@@H](c3ccccc3)[C@]2(Cl)C(=O)[C@H]2[C@H](c3ccccc3)[C@@]12Cl | > 100 µM | > 100 µM | – | – | – | > 100 µM | – | > 100 µM | > 100 µM | > 100 µM | > 100 µM | > 100 µM | > 100 µM
COc1ccc(/C=C2\CCC(CNc3ccc(OC)cc3)C2=O)cc1 (centres undefined) | 23.2 µM | 41 µM | – | – | – | 34.9 µM | – | 47.3 µM | 94.5 µM | 36 µM | 48 µM | > 65.4 µM | 35.7 µM
CCOC(=O)c1c(N2CCCC2)[nH]c(=O)c(C(c2ccco2)c2c(O)c(C(=O)OCC)c(N3CCCC3)[nH]c2=O)c1O | > 100 µM | > 100 µM | – | – | – | > 100 µM | – | > 100 µM | 60.5 µM | > 100 µM | > 100 µM | > 100 µM | > 100 µM
CN(C)c1ccccc1CN1CCCN(Cc2ccccc2N(C)C)C1c1ccncc1 | 32.2 µM | 34.6 µM | – | – | – | 8.62 µM | – | 23.4 µM | 32.1 µM | 28.4 µM | 27.6 µM | 31.5 µM | 51.5 µM
Cc1cc(Cc2c(F)c(F)c(C(c3cc(C)no3)c3c(F)c(F)c(F)c(F)c3F)c(F)c2F)on1 (centres undefined) | > 100 µM | > 100 µM | – | – | – | > 100 µM | – | > 100 µM | > 100 µM | > 100 µM | > 100 µM | > 100 µM | > 100 µM
Nc1nc(Cl)cc(NCCC2(CO)CCC2)n1 | > 100 µM | > 100 µM | – | – | – | > 100 µM | – | > 100 µM | > 100 µM | > 100 µM | > 100 µM | > 100 µM | > 100 µM
O=C(/C=C/c1ccc(O)c(O)c1)c1cc(O)cc(O)c1 | 26.6 µM | > 100 µM | – | – | – | 26.9 µM | – | 27.6 µM | 34.5 µM | 39.7 µM | 26.1 µM | 44.3 µM | 28.8 µM
CC1C2CC(C(S(=O)(=O)N3CCOCC3)/C2=N\O)C1(C)C (centres undefined) | > 100 µM | > 100 µM | – | – | – | > 100 µM | – | > 100 µM | > 100 µM | > 100 µM | > 100 µM | > 100 µM | > 100 µM
